Common to all, as to assay: FRET from protein Trp to bound NADPH
What all share (format): binding

For assay [1], the target named is T1, protochlorophyllide oxidoreductase (POR) (Thermosynechococcus vestitus, UniProt Q8DLC1).
T1 construct: recombinant, overexpressed in Escherichia coli, purified as in earlier work
From the text:
(§1) FRET from protein Trp to bound NADPH on protochlorophyllide oxidoreductase (POR)

Assay [2] addresses T2, protochlorophyllide oxidoreductase (POR) (Thermosynechococcus vestitus, UniProt Q8DLC1, K42A).
T2 construct: recombinant, overexpressed in Escherichia coli, purified as in earlier work
Excerpt: as §1

Assay [3] concerns the target T3, protochlorophyllide oxidoreductase (POR) (Thermosynechococcus vestitus, UniProt Q8DLC1, R38V).
T3 construct: recombinant, overexpressed in Escherichia coli, purified as in earlier work
Excerpt: as §1

The target in assay [4] is T4, protochlorophyllide oxidoreductase (POR) (Thermosynechococcus vestitus, UniProt Q8DLC1, S16C).
T4 construct: recombinant, overexpressed in Escherichia coli, purified as in earlier work
Excerpt: as §1

The target in assay [5] is T5, protochlorophyllide oxidoreductase (POR) (Thermosynechococcus vestitus, UniProt Q8DLC1, T230F).
T5 construct: recombinant, overexpressed in Escherichia coli, purified as in earlier work
Excerpt: as §1

Assay [6] has as its target T6, protochlorophyllide oxidoreductase (POR) (Thermosynechococcus vestitus, UniProt Q8DLC1, G19A).
T6 construct: recombinant, overexpressed in Escherichia coli, purified as in earlier work
Excerpt: as §1

Structures are written as SMILES.

The Kd is the constant that tells how readily two partners part at equilibrium.

T5 sequence (Q8DLC1 entry or part of it T230F): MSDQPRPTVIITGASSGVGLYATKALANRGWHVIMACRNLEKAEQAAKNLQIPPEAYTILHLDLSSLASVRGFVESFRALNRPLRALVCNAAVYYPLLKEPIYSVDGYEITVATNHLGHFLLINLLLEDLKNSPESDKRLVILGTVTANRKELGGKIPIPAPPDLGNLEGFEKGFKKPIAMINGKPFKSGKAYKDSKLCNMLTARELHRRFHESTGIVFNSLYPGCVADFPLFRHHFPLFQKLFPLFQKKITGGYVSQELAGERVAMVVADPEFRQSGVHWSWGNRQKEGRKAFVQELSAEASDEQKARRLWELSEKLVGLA
T3 sequence (Q8DLC1 entry or part of it R38V): as the sequence (Q8DLC1 entry or part of it T230F) above, with R38V, F230T counted along it
T2 sequence (Q8DLC1 entry or part of it K42A): as the sequence (Q8DLC1 entry or part of it T230F) above, with K42A, F230T counted along it
T6 sequence (Q8DLC1 entry or part of it G19A): as the sequence (Q8DLC1 entry or part of it T230F) above, with G19A, F230T counted along it
T1 sequence (Q8DLC1 1-322): as the sequence (Q8DLC1 entry or part of it T230F) above, with F230T counted along it
T4 sequence (Q8DLC1 entry or part of it S16C): as the sequence (Q8DLC1 entry or part of it T230F) above, with S16C, F230T counted along it

On to `NC(=O)C1=CN([C@@H]2O[C@H](COP(=O)(O)OP(=O)(O)OC[C@H]3O[C@@H](n4cnc5c(N)ncnc54)[C@H](OP(=O)(O)O)[C@@H]3O)[C@@H](O)[C@H]2O)C=CC1` [NADPH], for which the Kd is 0.021 ± 0.001 µM in assay [1]; 0.23 ± 0.081 µM in assay [2]; 0.411 ± 0.076 µM in assay [3]; 0.325 ± 0.09 µM in assay [4]; 0.436 ± 0.087 µM in assay [5]; 0.182 ± 0.031 µM in assay [6].

The record behind these values is article PMC4970445, “Multiple active site residues are important for photochemical efficiency in the light-activated enzyme protochlorophyllide oxidoreductase (POR)^” (Journal of Photochemistry and Photobiology. B, Biology, 2016).
